Where two headings read alike, the source gives them in different places.
How the values were obtained:
ovine COX-1 (oCOX-1) = molecular target: T1, ovine COX-1 (oCOX-1) (Ovis aries, UniProt P05979); assay: LCMS-based COX-1 enzymatic inhibition assay (PGE2 quantification); type: biochemical; details: 10 minutes
T1 construct: purchased Cayman Chemicals (Ann Arbor, Mich.)
T1 sequence (P05979 25-600): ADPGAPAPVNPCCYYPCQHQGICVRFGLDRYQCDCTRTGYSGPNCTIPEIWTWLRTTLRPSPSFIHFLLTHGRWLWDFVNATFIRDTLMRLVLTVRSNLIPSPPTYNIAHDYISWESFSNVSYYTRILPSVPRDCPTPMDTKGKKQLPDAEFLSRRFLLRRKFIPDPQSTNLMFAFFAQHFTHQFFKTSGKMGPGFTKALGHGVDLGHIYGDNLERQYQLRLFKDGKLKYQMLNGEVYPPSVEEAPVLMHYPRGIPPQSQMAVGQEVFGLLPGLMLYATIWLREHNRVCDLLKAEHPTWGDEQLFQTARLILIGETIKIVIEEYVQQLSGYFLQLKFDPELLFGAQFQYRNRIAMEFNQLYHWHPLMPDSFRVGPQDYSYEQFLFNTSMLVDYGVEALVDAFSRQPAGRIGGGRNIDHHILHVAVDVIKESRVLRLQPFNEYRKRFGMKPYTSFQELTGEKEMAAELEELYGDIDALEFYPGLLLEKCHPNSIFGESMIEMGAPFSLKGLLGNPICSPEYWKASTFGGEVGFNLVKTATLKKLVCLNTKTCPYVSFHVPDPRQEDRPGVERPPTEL
Experimental: We have adapted a previously reported cyclooxygenase enzymatic assay utilizing LCMS quantification of PGE2 as the product of COX-1 and COX2 catalyzed conversion of arachidonic acid to evaluate the binding properties of newly synthesized ligands [Cao, 2011]. These optimized and miniaturized (384-well plates) LCMS-based COX-1 and COX2 enzymatic assays enabled us to quickly evaluate newly synthesized ligands for COX2 binding affinity and selectivity vs COX-1. Using a shorter ligand-enzyme incubation time in the LCMS assay (2 minutes vs 10 minutes) also permitted us to prioritize ligands with faster binding kinetics. Considering the relatively slow on-rate kinetics of known coxibs, due to their 3-step binding mechanism [Marnett, 2009], we believe that optimizing this critical parameter will be key to the successful development of a COX2 PET tracer. Using these enzymatic assays, we have evaluated>200 newly synthesized ligands against COX2 and >20 ligands against COX-1. Another critical property necessary for a good PET radiotracer is to have low non-specific binding (NSB) to increase the free fraction and maximize the signal to noise ratio. This property can be evaluated using in-vitro protein binding assays, and we have now evaluated>50 newly synthesized ligands in mouse, rat and human plasma protein binding (PPB) assays as well as >15 ligands in a mouse brain protein binding (BPB) assay.
Ovine COX-1 (oCOX-1), ovine COX2 (oCOX2), human recombinant COX2 (hCOX2), arachidonic acid, PGE2, d4-PGD2, and […] (labeled with deuterium atoms at positions 3 and 4) were purchased from Cayman Chemicals (Ann Arbor, Mich.). The cofactors (−)epinephrine and hematin, and the COX inhibitors indomethacin, resveratrol and diclofenac were purchased from Sigma-Aldrich (St. Louis, Mo.). Celecoxib was purchased from 3B PharmaChem International (Wuhan, China). All organic solvents were HPLC grade or better and were purchased from Thermo Fisher (Hanover Park, Ill.). Formic acid was purchased from EMD Chemicals (San Diego, Calif.). Purified water was prepared by using a Millipore Milli-Q purification system (Millipore, Billerica, Mass.). All other chemicals and solvents were ACS reagent grade, unless stated otherwise.
In an Eppendorf tube, 146 μL of 100 mM Tris.HCl (pH 8.0) buffer, 2 μL of 100 μM hematin (co-factor) and 10 μL of 40 mM L-epinephrine (co-factor) were mixed at room temperature. Next, 20 μL of Tris.HCl (pH 8.0) buffer containing 0.2 μg COX2 or 0.1 μg COX-1 (approximately 1 unit of enzyme; 1 unit COX utilizes 1 nmol 02/mg/min at 37° C.) was added, and the solution was incubated at room temperature for 2 min. A 2 μL aliquot of the COX inhibitor in DMSO was added to the enzyme solution and preincubated at 37° C. for 10 min. Negative controls were identical except that 2 μL aliquots of DMSO without inhibitor were used instead.
Each COX reaction was initiated by adding 20 μL of arachidonic acid in Tris.HCl (pH 8.0) buffer to give a final concentration of 5 μM; and the reaction was terminated after 2 min by adding 20 μL of 2.0 M HCl. The surrogate standards d4-PGE2 and d4-PGD2 (10 μL aliquot of 50 ng/mL solution in methanol) were added to correct for errors or degradation during sample handling and for variation in injection volume or instrument response during LC-MS-MS. After 30 min, PGE2, PGD2 and their surrogate standards were extracted from each incubation mixture using 800 μL hexane/ethyl acetate (50:50, v/v). The organic phase was removed, evaporated to dryness, and reconstituted in 100 μL methanol/water (50:50, v/v) for analysis using LC-MS-MS.
The concentration of PGE2 in each sample was measured using LC-MS-MS, and the percent of COX inhibition by each test solution was determined by comparing the amount of PGE2 produced in the experiment with that produced in the negative control incubation. The formation of PGD2 was measured for quality control purposes, since the levels of PGD2 should be proportional to those of PGE2. […]

[1] = molecular target: T2, human recombinant COX2 (hCOX2) (UniProt P35354); assay: LCMS-based COX2 enzymatic inhibition assay (PGE2 quantification); type: biochemical; parameters: COX2 2 minutes pge2/pge2d4 area ratio Avg; other: 2 minutes; readout pge2/pge2d4 area ratio; average; COX2 2 minutes pge2/pge2d4 area ratio Avg; LLE; average LLE; COX2 2 minutes pge2 area (counts) Avg; readout pge2 area (counts); other: 2 min; "ovine COX2 (oCOX2), human recombinant COX2 (hCOX2)"; details: for IC50: average
T2 sequence (P35354 1-604): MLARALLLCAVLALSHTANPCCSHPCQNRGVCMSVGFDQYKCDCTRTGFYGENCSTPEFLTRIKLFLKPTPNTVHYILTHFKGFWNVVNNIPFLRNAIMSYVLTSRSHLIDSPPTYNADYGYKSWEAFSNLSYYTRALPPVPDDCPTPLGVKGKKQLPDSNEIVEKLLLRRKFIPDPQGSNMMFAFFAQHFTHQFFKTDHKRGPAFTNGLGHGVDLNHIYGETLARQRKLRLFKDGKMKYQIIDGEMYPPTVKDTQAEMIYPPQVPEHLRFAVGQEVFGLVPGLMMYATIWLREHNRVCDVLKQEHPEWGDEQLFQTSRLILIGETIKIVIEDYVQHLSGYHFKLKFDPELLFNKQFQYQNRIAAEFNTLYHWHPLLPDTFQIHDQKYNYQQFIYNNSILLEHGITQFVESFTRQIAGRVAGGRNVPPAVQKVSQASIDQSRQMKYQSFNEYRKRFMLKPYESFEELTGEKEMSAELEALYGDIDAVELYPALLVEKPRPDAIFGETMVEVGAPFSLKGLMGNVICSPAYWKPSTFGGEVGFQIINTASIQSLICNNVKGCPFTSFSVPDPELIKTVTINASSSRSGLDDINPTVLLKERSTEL
Procedure, shortened: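 Ovine COX-1 (0.1 μg) or human recombinant COX2 (0.2 μg) in 100 mM Tris.HCl pH 8.0 with hematin and epinephrine, preincubated with inhibitor 10 min at 37 °C. Reaction with 5 μM arachidonic acid stopped after 2 min with HCl; PGE2 quantified by LC-MS-MS. IC50 from 12 concentrations in triplicate.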

[2] = head of this section not shown, inferred
[3] = pge2 area (counts), head of this section not shown, inferred
[4] = pge2 area (counts), head of this section not shown, inferred, read-out: COX1 10 minutes pge2 area (counts) Avg. IC50
[5] = readout pge2/pge2d4 area ratio, average, read-out: COX1 10 minutes pge2/pge2d4 area ratio Avg. IC50
[6] = 2 minutes, readout pge2/pge2d4 area ratio, average LLE
[7] = 2 minutes, readout pge2/pge2d4 area ratio, read-out: COX2 2 minutes pge2/pge2d4 area ratio Avg. IC50
[8] = 2 minutes, readout pge2 area (counts), average LLE
[9] = 2 minutes, readout pge2 area (counts), read-out: COX2 2 minutes pge2 area (counts) Avg. IC50

SMILES	COX1 10 minutes pge2/pge2d4 area ratio Avg. LLE (ovine COX-1 (oCOX-1); [2])	COX1 10 minutes pge2 area (counts) Avg. LLE (ovine COX-1 (oCOX-1); [3])	IC50 (ovine COX-1 (oCOX-1); [4]) [nM]	IC50 (ovine COX-1 (oCOX-1); [5]) [nM]	COX2 2 minutes pge2/pge2d4 area ratio Avg. LLE [1, 6]	IC50 [1, 7] [nM]	COX2 2 minutes pge2 area (counts) Avg. LLE [1, 8]	IC50 [1, 9] [nM]	COX2 10 minutes pge2 area (counts) Avg. LLE ([1]; 10 minutes, readout pge2 area (counts), average LLE)	IC50 ([1]; 10 minutes, readout pge2 area (counts), read-out: COX2 10 minutes pge2 area (counts) Avg. IC50) [nM]
CS(=O)(=O)c1ccc(-c2cccc(NCc3ccc[nH]3)n2)cc1 [Compound 73]	2.183	2.127	17100	15000	4.8	42.9	4.74	45.2		
CS(=O)(=O)c1ccc(-c2cncc(NCc3ccccc3)n2)cc1 [Compound 93]		2.104			5.017	69	5.139	55.8	5.9924	6.85
COc1ccc(NCc2cccs2)nc1-c1ccc(S(C)(=O)=O)nc1 [Compound 88]	2.306	2.306	16000	16000	4.709	63.4	4.67	69.3		
COc1ncc(-c2ccc(S(N)(=O)=O)cc2)nc1NCc1cccs1 [Compound 64]	3.4205	3.473	4760	5360	5.595	36.1	5.591	36.6		
CS(=O)(=O)c1ccc(-n2ccc3ccc([C@H](O)c4cccs4)nc32)cc1 (single isomer, unassigned) [Compound 168]						437		425		
CS(=O)(=O)c1ccc(-c2cc(OCc3cccs3)cnn2)cc1 [Compound 234]					3.137	2450	3.14	2420		
Cn1ccc(CNc2cncc(-c3ccc(S(C)(=O)=O)cc3)n2)n1 [Compound 245]					4.632	3160	4.621	3330		
COc1ncc(NCc2ccns2)nc1-c1ccc(S(C)(=O)=O)cc1 [Compound 102]					5.647	87.5	5.572	103		
COc1ncc(NCc2sccc2C)nc1-c1ccc(S(C)(=O)=O)cc1 [Compound 62]					4.781	34.5	4.654	40.5		

Source: patent US20220348590A1, “CYCLOOXYGENASE-2 INHIBITORS AND USES THEREOF” (The Board Institute, Inc., priority 2019, published 2022)
